Counter-ions that a name gives are not always drawn.
system: L02; assay: Cytotoxicity against human L02 cells measured after 48 hrs by MTT assay; assay type: cell-based; settings: L02, 48 h

Question: Which IC50 does the source give for `C[C@H]1[C@H](OC(=O)CCC(=O)OCCn2cnc([N+](=O)[O-])c2)O[C@@H]2O[C@@]3(C)CC[C@H]4[C@H](C)CC[C@@H]1[C@@]24OO3` here?
Answer: 56.2 µM

Question: Which IC50 does the source give for `C[C@H]1[C@H](OC(=O)CCC(=O)OCCn2cc(C#N)nc2Cl)O[C@@H]2O[C@@]3(C)CC[C@H]4[C@H](C)CC[C@@H]1[C@@]24OO3` here?
Answer: 61.2 µM

Question: Which IC50 does the source give for `C[C@H]1[C@H](OC(=O)CCC(=O)OCCCn2cnc([N+](=O)[O-])c2)O[C@@H]2O[C@@]3(C)CC[C@H]4[C@H](C)CC[C@@H]1[C@@]24OO3` here?
Answer: 34.3 µM

Question: With `C[C@H]1[C@H](OC(=O)CCC(=O)OCCCn2ccnc2[N+](=O)[O-])O[C@@H]2O[C@@]3(C)CC[C@H]4[C@H](C)CC[C@@H]1[C@@]24OO3` as the compound, how does the IC50 read?
Answer: 46.4 µM

Question: With `COc1cccc2c1C(=O)c1c(O)c3c(c(O)c1C2=O)C[C@@](O)(C(=O)CO)C[C@@H]3O[C@H]1C[C@H](N)[C@H](O)[C@H](C)O1` [DOXORUBICIN HYDROCHLORIDE] as the compound, how does the IC50 read?
Answer: 0.79 µM

Question: For `C[C@H]1[C@H](OC(=O)CCC(=O)OCCCCn2cc(C#N)nc2Cl)O[C@@H]2O[C@@]3(C)CC[C@H]4[C@H](C)CC[C@@H]1[C@@]24OO3`, which IC50 is on record?
Answer: 52.3 µM

system: not listed separately; assay: Toxicity in human MCF7 cells assessed as inhibition of cell proliferation at 5 uM measured after 48 hrs by MTT assay; assay type: cell-based; settings: not given

Question: With `C[C@H]1[C@H](OC(=O)CCC(=O)OCCn2cnc([N+](=O)[O-])c2)O[C@@H]2O[C@@]3(C)CC[C@H]4[C@H](C)CC[C@@H]1[C@@]24OO3` as the compound, how does the inhibition at 48 h, 5 µM read?
Answer: 7.78%

Question: Which inhibition at 48 h, 5 µM does the source give for `C[C@H]1[C@H](OC(=O)CCC(=O)OCCn2cc(C#N)nc2Cl)O[C@@H]2O[C@@]3(C)CC[C@H]4[C@H](C)CC[C@@H]1[C@@]24OO3` here?
Answer: 21.3%

Question: Which inhibition at 48 h, 5 µM does the source give for `C[C@H]1[C@H](OC(=O)CCC(=O)OCCCn2cnc([N+](=O)[O-])c2)O[C@@H]2O[C@@]3(C)CC[C@H]4[C@H](C)CC[C@@H]1[C@@]24OO3` here?
Answer: 22.3%

Question: For `C[C@H]1[C@H](OC(=O)CCC(=O)OCCCn2ccnc2[N+](=O)[O-])O[C@@H]2O[C@@]3(C)CC[C@H]4[C@H](C)CC[C@@H]1[C@@]24OO3`, which inhibition at 48 h, 5 µM is on record?
Answer: 22.3%

Question: For `C[C@H]1[C@H](OC(=O)CCC(=O)OCCCCn2cc(C#N)nc2Cl)O[C@@H]2O[C@@]3(C)CC[C@H]4[C@H](C)CC[C@@H]1[C@@]24OO3`, which inhibition at 48 h, 5 µM is on record?
Answer: 16.6%

system: MDA-MB-231; assay: Antiproliferative activity against human MDA-MB-231 cells measured after 48 hrs by MTT assay; assay type: functional, cell-based; settings: MDA-MB-231, 48 h

Question: With `C[C@H]1[C@H](OC(=O)CCC(=O)OCCn2cnc([N+](=O)[O-])c2)O[C@@H]2O[C@@]3(C)CC[C@H]4[C@H](C)CC[C@@H]1[C@@]24OO3` as the compound, how does the IC50 read?
Answer: 82.3 µM

Question: With `C[C@H]1[C@H](OC(=O)CCC(=O)OCCn2cc(C#N)nc2Cl)O[C@@H]2O[C@@]3(C)CC[C@H]4[C@H](C)CC[C@@H]1[C@@]24OO3` as the compound, how does the IC50 read?
Answer: 66.4 µM

Question: With `C[C@H]1[C@H](OC(=O)CCC(=O)OCCCn2cnc([N+](=O)[O-])c2)O[C@@H]2O[C@@]3(C)CC[C@H]4[C@H](C)CC[C@@H]1[C@@]24OO3` as the compound, how does the IC50 read?
Answer: 80.9 µM

Question: For `C[C@H]1[C@H](OC(=O)CCC(=O)OCCCn2ccnc2[N+](=O)[O-])O[C@@H]2O[C@@]3(C)CC[C@H]4[C@H](C)CC[C@@H]1[C@@]24OO3`, which IC50 is on record?
Answer: > 100 µM

Question: With `C[C@H]1[C@H](OC(=O)CCC(=O)OCCCCn2cc(C#N)nc2Cl)O[C@@H]2O[C@@]3(C)CC[C@H]4[C@H](C)CC[C@@H]1[C@@]24OO3` as the compound, how does the IC50 read?
Answer: > 100 µM

system: MCF7; assay: Antiproliferative activity against human MCF7 cells measured after 48 hrs by MTT assay; assay type: functional, cell-based; settings: MCF7, 48 h

Question: For `C[C@H]1[C@H](OC(=O)CCC(=O)OCCn2cnc([N+](=O)[O-])c2)O[C@@H]2O[C@@]3(C)CC[C@H]4[C@H](C)CC[C@@H]1[C@@]24OO3`, which IC50 is on record?
Answer: 14 µM

Question: For `C[C@H]1[C@H](OC(=O)CCC(=O)OCCn2cc(C#N)nc2Cl)O[C@@H]2O[C@@]3(C)CC[C@H]4[C@H](C)CC[C@@H]1[C@@]24OO3`, which IC50 is on record?
Answer: 17.5 µM

Question: For `C[C@H]1[C@H](OC(=O)CCC(=O)OCCCn2cnc([N+](=O)[O-])c2)O[C@@H]2O[C@@]3(C)CC[C@H]4[C@H](C)CC[C@@H]1[C@@]24OO3`, which IC50 is on record?
Answer: 12.7 µM

Question: With `C[C@H]1[C@H](OC(=O)CCC(=O)OCCCn2ccnc2[N+](=O)[O-])O[C@@H]2O[C@@]3(C)CC[C@H]4[C@H](C)CC[C@@H]1[C@@]24OO3` as the compound, how does the IC50 read?
Answer: 12.9 µM

Question: With `C[C@H]1[C@H](OC(=O)CCC(=O)OCCCCn2cc(C#N)nc2Cl)O[C@@H]2O[C@@]3(C)CC[C@H]4[C@H](C)CC[C@@H]1[C@@]24OO3` as the compound, how does the IC50 read?
Answer: 13.6 µM

system: NCI/ADR-RES; assay: Potentiation of adriamycin-induced antiproliferative activity against human MCF7/ADR cells assessed as fold reduction in adriamycin IC50 at 5 uM measured after 48 hrs by MTT assay; assay type: functional; settings: not given

Question: For `C[C@H]1[C@H](OC(=O)CCC(=O)OCCn2cnc([N+](=O)[O-])c2)O[C@@H]2O[C@@]3(C)CC[C@H]4[C@H](C)CC[C@@H]1[C@@]24OO3`, which “fold change (FC)” value is on record?
Answer: 43.48

Question: Which “fold change (FC)” value does the source give for `C[C@H]1[C@H](OC(=O)CCC(=O)OCCn2cc(C#N)nc2Cl)O[C@@H]2O[C@@]3(C)CC[C@H]4[C@H](C)CC[C@@H]1[C@@]24OO3` here?
Answer: 9.24

Question: With `C[C@H]1[C@H](OC(=O)CCC(=O)OCCCn2cnc([N+](=O)[O-])c2)O[C@@H]2O[C@@]3(C)CC[C@H]4[C@H](C)CC[C@@H]1[C@@]24OO3` as the compound, how does the “fold change (FC)” value read?
Answer: 15.72

Question: Which “fold change (FC)” value does the source give for `C[C@H]1[C@H](OC(=O)CCC(=O)OCCCn2ccnc2[N+](=O)[O-])O[C@@H]2O[C@@]3(C)CC[C@H]4[C@H](C)CC[C@@H]1[C@@]24OO3` here?
Answer: 16.69

Question: Which “fold change (FC)” value does the source give for `C[C@H]1[C@H](OC(=O)CCC(=O)OCCCCn2cc(C#N)nc2Cl)O[C@@H]2O[C@@]3(C)CC[C@H]4[C@H](C)CC[C@@H]1[C@@]24OO3` here?
Answer: 11.17

system: A549; assay: Antiproliferative activity against human A549 cells measured after 48 hrs by MTT assay; assay type: functional, cell-based; settings: A549, 48 h

Question: Which IC50 does the source give for `C[C@H]1[C@H](OC(=O)CCC(=O)OCCn2cnc([N+](=O)[O-])c2)O[C@@H]2O[C@@]3(C)CC[C@H]4[C@H](C)CC[C@@H]1[C@@]24OO3` here?
Answer: 12.7 µM

Question: With `C[C@H]1[C@H](OC(=O)CCC(=O)OCCn2cc(C#N)nc2Cl)O[C@@H]2O[C@@]3(C)CC[C@H]4[C@H](C)CC[C@@H]1[C@@]24OO3` as the compound, how does the IC50 read?
Answer: 20.7 µM

Question: For `C[C@H]1[C@H](OC(=O)CCC(=O)OCCCn2cnc([N+](=O)[O-])c2)O[C@@H]2O[C@@]3(C)CC[C@H]4[C@H](C)CC[C@@H]1[C@@]24OO3`, which IC50 is on record?
Answer: 20 µM

Question: Which IC50 does the source give for `C[C@H]1[C@H](OC(=O)CCC(=O)OCCCn2ccnc2[N+](=O)[O-])O[C@@H]2O[C@@]3(C)CC[C@H]4[C@H](C)CC[C@@H]1[C@@]24OO3` here?
Answer: 20.9 µM

Question: For `COc1cccc2c1C(=O)c1c(O)c3c(c(O)c1C2=O)C[C@@](O)(C(=O)CO)C[C@@H]3O[C@H]1C[C@H](N)[C@H](O)[C@H](C)O1` [DOXORUBICIN HYDROCHLORIDE], which IC50 is on record?
Answer: 1.13 µM

Question: For `C[C@H]1[C@H](OC(=O)CCC(=O)OCCCCn2cc(C#N)nc2Cl)O[C@@H]2O[C@@]3(C)CC[C@H]4[C@H](C)CC[C@@H]1[C@@]24OO3`, which IC50 is on record?
Answer: 23.3 µM

system: HepG2; assay: Antiproliferative activity against human HepG2 cells measured after 48 hrs by MTT assay; assay type: functional, cell-based; settings: HepG2, 48 h

Question: With `C[C@H]1[C@H](OC(=O)CCC(=O)OCCn2cnc([N+](=O)[O-])c2)O[C@@H]2O[C@@]3(C)CC[C@H]4[C@H](C)CC[C@@H]1[C@@]24OO3` as the compound, how does the IC50 read?
Answer: 34.9 µM

Question: Which IC50 does the source give for `C[C@H]1[C@H](OC(=O)CCC(=O)OCCn2cc(C#N)nc2Cl)O[C@@H]2O[C@@]3(C)CC[C@H]4[C@H](C)CC[C@@H]1[C@@]24OO3` here?
Answer: 44.3 µM

Question: Which IC50 does the source give for `C[C@H]1[C@H](OC(=O)CCC(=O)OCCCn2cnc([N+](=O)[O-])c2)O[C@@H]2O[C@@]3(C)CC[C@H]4[C@H](C)CC[C@@H]1[C@@]24OO3` here?
Answer: 33.3 µM

Question: Which IC50 does the source give for `C[C@H]1[C@H](OC(=O)CCC(=O)OCCCn2ccnc2[N+](=O)[O-])O[C@@H]2O[C@@]3(C)CC[C@H]4[C@H](C)CC[C@@H]1[C@@]24OO3` here?
Answer: 39.3 µM

Question: Which IC50 does the source give for `C[C@H]1[C@H](OC(=O)CCC(=O)OCCCCn2cc(C#N)nc2Cl)O[C@@H]2O[C@@]3(C)CC[C@H]4[C@H](C)CC[C@@H]1[C@@]24OO3` here?
Answer: 40.2 µM

Reference: ChEMBL document CHEMBL4316608, “Artemisinin-indole and artemisinin-imidazole hybrids: Synthesis, cytotoxic evaluation and reversal effects on multidrug resistance in MCF-7/ADR cells” (Bioorg Med Chem Lett, 2019)
